Assay results from PubChem BioAssay (NCI).
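Method: 48-hour compound exposure of cells in 96-well plates, five concentrations, linear interpolation of endpoints. Abbreviation: GI50, concentration required for 50% inhibition of growth. TGI denotes the concentration required for complete inhibition of growth.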

Tests used:
Test in all cases: NCI-60 cell line screen, 48 h
786-0 renal = test system: 786-0 renal
A498 renal = test system: A498 renal
A549 NSCLC = test system: A549 NSCLC
ACHN renal = test system: ACHN renal
CAKI-1 renal = test system: CAKI-1 renal
CCRF-CEM leukemia = test system: CCRF-CEM leukemia
COLO 205 colon = test system: COLO 205 colon
DLD-1 colon = test system: DLD-1 colon
DMS 114 small cell lung = test system: DMS 114 small cell lung
DMS 273 small cell lung = test system: DMS 273 small cell lung
HCT-116 colon = test system: HCT-116 colon
HCT-15 colon = test system: HCT-15 colon
HL-60(TB) leukemia = test system: HL-60(TB) leukemia
HOP-18 NSCLC = test system: HOP-18 NSCLC
HOP-62 NSCLC = test system: HOP-62 NSCLC
HOP-92 NSCLC = test system: HOP-92 NSCLC
HT29 colon = test system: HT29 colon
IGROV1 ovarian = test system: IGROV1 ovarian
K-562 leukemia = test system: K-562 leukemia
KM12 colon = test system: KM12 colon
KM20L2 colon = test system: KM20L2 colon
LOX IMVI melanoma = test system: LOX IMVI melanoma
LXFL 529 NSCLC = test system: LXFL 529 NSCLC
M14 melanoma = test system: M14 melanoma
M19-MEL melanoma = test system: M19-MEL melanoma
MALME-3M melanoma = test system: MALME-3M melanoma
MOLT-4 leukemia = test system: MOLT-4 leukemia
NCI-H23 lung = test system: NCI-H23 lung
NCI-H460 lung = test system: NCI-H460 lung
OVCAR-3 ovarian = test system: OVCAR-3 ovarian
OVCAR-8 ovarian = test system: OVCAR-8 ovarian
RPMI-8226 leukemia = test system: RPMI-8226 leukemia
RXF-631 renal = test system: RXF-631 renal
SF-268 CNS = test system: SF-268 CNS
SF-295 CNS = test system: SF-295 CNS
SF-539 CNS = test system: SF-539 CNS
SK-MEL-28 melanoma = test system: SK-MEL-28 melanoma
SK-MEL-5 melanoma = test system: SK-MEL-5 melanoma
SK-OV-3 ovarian = test system: SK-OV-3 ovarian
SN12C renal = test system: SN12C renal
SNB-19 CNS = test system: SNB-19 CNS
SNB-75 CNS = test system: SNB-75 CNS
SNB-78 CNS = test system: SNB-78 CNS
SR leukemia = test system: SR leukemia
SW-620 colon = test system: SW-620 colon
TK-10 renal = test system: TK-10 renal
U251 CNS = test system: U251 CNS
UACC-257 melanoma = test system: UACC-257 melanoma
UACC-62 melanoma = test system: UACC-62 melanoma
UO-31 renal = test system: UO-31 renal

COc1ccccc1[N-]C(C1=C([O-])c2ccccc2C1=O)c1ccccc1.COc1ccccc1[N-]C(C1=C([O-])c2ccccc2C1=O)c1ccccc1.[Cu+2] (stereo not given)
GI50 (786-0 renal): 7.76 µM | TGI (786-0 renal): > 100 µM | GI50 (A498 renal): 14.7 µM | TGI (A498 renal): 53.7 µM | GI50 (A549 NSCLC): 4.63 µM | TGI (A549 NSCLC): 52.9 µM | GI50 (ACHN renal): 10.9 µM | TGI (ACHN renal): 74.7 µM | GI50 (CAKI-1 renal): 12.7 µM | TGI (CAKI-1 renal): 54.5 µM | GI50 (CCRF-CEM leukemia): 3.49 µM | TGI (CCRF-CEM leukemia): > 100 µM | GI50 (COLO 205 colon): 3.95 µM | TGI (COLO 205 colon): 30 µM | GI50 (DLD-1 colon): 3.7 µM | TGI (DLD-1 colon): > 100 µM | GI50 (DMS 114 small cell lung): 3.01 µM | TGI (DMS 114 small cell lung): > 100 µM | GI50 (DMS 273 small cell lung): 4.59 µM | TGI (DMS 273 small cell lung): > 100 µM | GI50 (HCT-116 colon): 3.26 µM | TGI (HCT-116 colon): > 100 µM | GI50 (HCT-15 colon): 6.51 µM | TGI (HCT-15 colon): > 100 µM | GI50 (HL-60(TB) leukemia): 3.25 µM | TGI (HL-60(TB) leukemia): > 100 µM | GI50 (HOP-18 NSCLC): 18.3 µM | TGI (HOP-18 NSCLC): 95.1 µM | GI50 (HOP-62 NSCLC): 25.2 µM | TGI (HOP-62 NSCLC): 68.6 µM | GI50 (HOP-92 NSCLC): 9.86 µM | TGI (HOP-92 NSCLC): 69.7 µM | GI50 (HT29 colon): 18.2 µM | TGI (HT29 colon): > 100 µM | GI50 (IGROV1 ovarian): 9.3 µM | TGI (IGROV1 ovarian): > 100 µM | GI50 (K-562 leukemia): 3.18 µM | TGI (K-562 leukemia): > 100 µM | GI50 (KM12 colon): 5.76 µM | TGI (KM12 colon): 43.1 µM | GI50 (KM20L2 colon): 25.4 µM | TGI (KM20L2 colon): > 100 µM | GI50 (LOX IMVI melanoma): 8.64 µM | TGI (LOX IMVI melanoma): 95.2 µM | GI50 (LXFL 529 NSCLC): 22.4 µM | TGI (LXFL 529 NSCLC): > 100 µM | GI50 (M14 melanoma): 4.58 µM | TGI (M14 melanoma): > 100 µM | GI50 (M19-MEL melanoma): 41.7 µM | TGI (M19-MEL melanoma): > 100 µM | GI50 (MALME-3M melanoma): 6.85 µM | TGI (MALME-3M melanoma): > 100 µM | GI50 (MOLT-4 leukemia): 5.98 µM | TGI (MOLT-4 leukemia): > 100 µM | GI50 (NCI-H23 lung): 7.17 µM | TGI (NCI-H23 lung): 61.2 µM | GI50 (NCI-H460 lung): 6.76 µM | TGI (NCI-H460 lung): > 100 µM | GI50 (OVCAR-3 ovarian): 13.8 µM | TGI (OVCAR-3 ovarian): 54.2 µM | GI50 (OVCAR-8 ovarian): 7.52 µM | TGI (OVCAR-8 ovarian): > 100 µM | GI50 (RPMI-8226 leukemia): 3.9 µM | TGI (RPMI-8226 leukemia): > 100 µM | GI50 (RXF-631 renal): 12.7 µM | TGI (RXF-631 renal): > 100 µM | GI50 (SF-268 CNS): 5.3 µM | TGI (SF-268 CNS): > 100 µM | GI50 (SF-295 CNS): 5.33 µM | TGI (SF-295 CNS): > 100 µM | GI50 (SF-539 CNS): 3.82 µM | TGI (SF-539 CNS): 15.1 µM | GI50 (SK-MEL-28 melanoma): 16.2 µM | TGI (SK-MEL-28 melanoma): > 100 µM | GI50 (SK-MEL-5 melanoma): 5.39 µM | TGI (SK-MEL-5 melanoma): 72.7 µM | GI50 (SK-OV-3 ovarian): 2.09 µM | TGI (SK-OV-3 ovarian): 6.57 µM | GI50 (SN12C renal): 9.37 µM | TGI (SN12C renal): > 100 µM | GI50 (SNB-19 CNS): 23.8 µM | TGI (SNB-19 CNS): 81.8 µM | GI50 (SNB-75 CNS): 11.9 µM | TGI (SNB-75 CNS): 37.1 µM | GI50 (SNB-78 CNS): 8.19 µM | TGI (SNB-78 CNS): > 100 µM | GI50 (SR leukemia): 8.58 µM | TGI (SR leukemia): > 100 µM | GI50 (SW-620 colon): 6.08 µM | TGI (SW-620 colon): > 100 µM | GI50 (TK-10 renal): 31.7 µM | TGI (TK-10 renal): 68.3 µM | GI50 (U251 CNS): 2.88 µM | TGI (U251 CNS): 8.33 µM | GI50 (UACC-257 melanoma): 12.9 µM | TGI (UACC-257 melanoma): > 100 µM | GI50 (UACC-62 melanoma): 6.66 µM | TGI (UACC-62 melanoma): 42.4 µM | GI50 (UO-31 renal): 12 µM | TGI (UO-31 renal): 75.2 µM
